What was measured:
PARP-1 = PARP-1 (Homo sapiens, UniProt P09874); assay: biochemical
Method: (§1) For these measurements, concentrations of DPQ ranging from 0.05 nM to 10 μM were added to a 96-well plate containing PARP assay buffer and ADP-ribose-pNP and the absorbance at 405 nm was measured in triplicate.
(§2) Determination of IC50 values for PARP inhibitors. To determine IC50 values of the PARP inhibitors, 22.5 μL of PARP assay buffer containing varying concentrations of DPQ and 20 μg/mL DNase activated DNA (for PARP-1 only) were added into the wells of a 384-well plate. A 22.5 μL volume of PARP at a concentration of 5 μg/mL PARP-1, 40 μg/mL VPARP and 40 μg/mL tankyrase-1 in PARP assay buffer was added. The reaction was initiated by the addition of 5 μL of a 2.5 mM solution of ADP-ribose-pNP in PARP assay buffer, bringing the final concentration to 2.5 μg/mL PARP-1 with 10 μg/mL DNA or 20 μg/mL VPARP or 20 μg/mL tankyrase-1, 250 μM ADP-ribose-pNP with varying concentrations of inhibitors in a total volume of 50 μL. The plate was then read every 2 minutes for 2 hours at 405 nm on a SpectraMax 384 plate reader (Molecular Devices). […]
(§3) Data analysis. Data from the plate reader was imported into Excel where appropriate subtractions were made and the data was plotted. Graphs were analyzed using Table Curve 2D. […]

tankyrase-1 = molecular target: T1, tankyrase-1 (Homo sapiens, UniProt O95271); assay: IC50 determination of PARP inhibitor with ADP-ribose-pNP substrate, tankyrase-1; assay type: biochemical; conditions: 250 μM ADP-ribose-pNP
T1 construct: The SAM and PARP domain of tankyrase was subcloned into pGEX-5X-1; made in house; host or cells: E. coli Rosetta
T1 sequence (O95271 1030-1327): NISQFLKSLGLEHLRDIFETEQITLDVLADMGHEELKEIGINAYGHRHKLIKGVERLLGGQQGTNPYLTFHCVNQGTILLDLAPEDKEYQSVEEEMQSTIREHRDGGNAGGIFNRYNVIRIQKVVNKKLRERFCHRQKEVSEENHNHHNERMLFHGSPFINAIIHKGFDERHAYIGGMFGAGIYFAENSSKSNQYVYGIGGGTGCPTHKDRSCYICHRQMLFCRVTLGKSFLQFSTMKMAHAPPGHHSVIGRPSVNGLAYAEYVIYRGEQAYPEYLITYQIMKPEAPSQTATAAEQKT
Method: as §1, §2, §3

VPARP = molecular target: T2, VPARP (Homo sapiens, UniProt Q9UKK3); assay: IC50 determination of PARP inhibitor with ADP-ribose-pNP substrate, VPARP; assay type: biochemical; conditions: 250 μM ADP-ribose-pNP
T2 construct: The plasmid with the catalytic domain of VPARP, pET28b-p193cat; made in house; host or cells: E. coli Rosetta
T2 sequence (Q9UKK3 369-573 limits assumed): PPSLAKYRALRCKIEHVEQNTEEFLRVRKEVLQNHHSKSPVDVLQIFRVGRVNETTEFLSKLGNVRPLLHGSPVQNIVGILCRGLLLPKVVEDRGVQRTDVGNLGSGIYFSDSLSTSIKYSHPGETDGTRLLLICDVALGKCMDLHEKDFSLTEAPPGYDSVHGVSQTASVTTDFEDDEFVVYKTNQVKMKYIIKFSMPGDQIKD
Method: as §1, §2, §3

Sequence of PARP-1 (P09874 whole entry): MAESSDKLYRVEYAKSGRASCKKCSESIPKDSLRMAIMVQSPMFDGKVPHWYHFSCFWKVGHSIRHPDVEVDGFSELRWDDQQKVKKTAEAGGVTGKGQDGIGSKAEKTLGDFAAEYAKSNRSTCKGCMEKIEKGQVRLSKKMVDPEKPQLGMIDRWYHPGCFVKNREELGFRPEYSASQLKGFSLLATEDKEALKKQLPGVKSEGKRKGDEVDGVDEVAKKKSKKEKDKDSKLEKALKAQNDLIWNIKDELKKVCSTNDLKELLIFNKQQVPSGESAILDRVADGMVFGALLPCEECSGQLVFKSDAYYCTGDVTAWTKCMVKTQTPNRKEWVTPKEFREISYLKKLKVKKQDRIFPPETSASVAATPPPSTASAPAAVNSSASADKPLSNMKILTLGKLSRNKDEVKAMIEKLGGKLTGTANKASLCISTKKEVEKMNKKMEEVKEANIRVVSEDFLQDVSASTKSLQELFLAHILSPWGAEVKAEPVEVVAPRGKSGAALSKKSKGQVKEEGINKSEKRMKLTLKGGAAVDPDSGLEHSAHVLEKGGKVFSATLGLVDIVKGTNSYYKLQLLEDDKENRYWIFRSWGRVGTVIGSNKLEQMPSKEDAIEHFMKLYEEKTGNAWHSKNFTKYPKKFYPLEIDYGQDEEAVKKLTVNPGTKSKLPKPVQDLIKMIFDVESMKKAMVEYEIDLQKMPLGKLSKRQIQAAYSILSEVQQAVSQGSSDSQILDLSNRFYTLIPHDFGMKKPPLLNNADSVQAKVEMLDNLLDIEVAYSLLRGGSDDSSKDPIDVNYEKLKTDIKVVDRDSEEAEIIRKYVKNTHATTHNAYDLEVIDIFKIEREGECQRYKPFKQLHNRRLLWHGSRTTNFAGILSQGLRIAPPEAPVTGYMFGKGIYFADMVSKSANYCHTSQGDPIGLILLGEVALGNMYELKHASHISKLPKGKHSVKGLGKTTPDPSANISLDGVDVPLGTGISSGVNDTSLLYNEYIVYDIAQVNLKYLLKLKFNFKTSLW

O=C1NCCc2c(OCCCCN3CCCCC3)cccc21 [DPQ, 3,4-Dihydro-5-[4-(1-piperidinyl)butoxyl]-1 (2H)-isoquinolinone]
IC50 (PARP-1): 23 nM | IC50 (tankyrase-1): 33 nM | IC50 (VPARP): 281 nM
